Measurements reported in paper PMC8704891, “Natural Benzo/Acetophenones as Leads for New Synthetic Acetophenone Hybrids Containing a 1,2,3-Triazole Ring as Potential Antifouling Agents” (Marine Drugs, 2021).
“Also recorded” adds a separate entry of the source. Where two headings read alike, the source gives them in different places. One block for each compound: values may come before it.

Columns and labels:
[1] = tested on: Roseobacter litoralis CECT 5395; experiment: Biofilm-forming marine bacteria growth inhibition; type: cell-based; conditions: for R. litoralis biofilm growth inhibition: screening at 15 μM, 24 h, vs negative control (Dunnett, p < 0.01); for EC50: Roseobacter litoralis, CECT5395
Procedure: Five strains of marine biofilm-forming bacteria from the Spanish Type Culture Collection (CECT): Cobetia marina CECT 4278, Vibrio harveyi CECT 525, Halomonas aquamarina CECT 5000, Pseudoalteromonas atlantica CECT 570, and Roseobacter litoralis CECT 5395 were selected for antibacterial screening. The experimental procedure was performed according to the previously reported. Briefly, bacteria were inoculated and incubated for 24 h at 26 °C in marine broth (Difco) at an initial density of 0.1 (OD600) in 96-well flat-bottom microtiter plates and exposed to the test compounds at 15 μM. Bacterial growth inhibition in the presence of the compounds was determined in quadruplicate at 600 nm using a microplate reader (BioTek Synergy HT, Winooski, VT, USA). Negative and positive controls used were a solution of marine broth with 0.1% DMSO, and a solution of marine broth with penicillin–streptomycin–neomycin, respectively. Bacterial growth inhibition calculations were made based in the formula ((Mc–Mt)/Mc) × 100, where Mc is the mean of the four replicates from negative control, and Mt is the mean of four replicates from each of the tested compounds.
(§1) Data from anti-settlement, antibacterial, and anti-microalgal bioassay were analyzed by one-way analysis of variance (ANOVA), followed by a multi-comparisons Dunnett’s test against negative control. For all of the bioassays, the half-maximum response concentration (EC50) values for each compound, when applicable, were calculated using probit regression analysis. Significance was considered at p < 0.01, and 95% lower and upper confidence limits (95% LCL; UCL). The software IBM SPSS Statistics 26 (Armonk, New York, NY, USA) was used for statistical analysis.

[2] = tested on: Mytilus galloprovincialis plantigrade larvae; experiment: Mussel larvae anti-settlement bioassay; type: in vivo; conditions: for EC50: Mytilus galloprovincialis, dose-response 3.125-200 μM; for percentage of settlement: screening at 50 μM, 15 h
Procedure: (§2) Mussel (Mytilus galloprovincialis) plantigrades were collected in juvenile aggregates during low neap tides at Memória beach, Matosinhos, Portugal (41°13′59″ N; 8°43′28″ W). In the laboratory, mussel plantigrade larvae (0.5–2 mm) were isolated in a binocular magnifier (Olympus SZX2-ILLT, Tokyo, Japan) to a petri dish with filtered seawater, and those with functional foot and competent exploring behavior were selected to the bioassays. Compounds were screened at 50 µM in 24-well microplates with 4-well replicates per condition and 5 larvae per well, for 15 h, in the darkness at 18 ± 1 °C, according to the previously reported. All compounds that caused more than 60% of settlement inhibition (≤40% of settlement) in the screening bioassay were considered active and selected for the determination of the semi-maximum response concentration that inhibited 50% of the larval settlement (EC50), at compounds concentrations of 3.125, 6.25, 12.5, 25, 50, 100, and 200 μM.
as §1

[3] = Mussel larvae anti-settlement bioassay; type: in vivo; conditions: Mytilus galloprovincialis (mussel) plantigrade larvae, in vivo; mussel plantigrade larvae; highest concentration tested 200 μM; read-out: LC50 (µM), median lethal dose
Procedure: as §2, §1

Artemia salina nauplii [4] = experiment: Artemia salina nauplii lethality ecotoxicity bioassay; type: in vivo; conditions: 25 and 50 μM, 48 h exposure
Procedure: The brine shrimp (Artemia salina) nauplii lethality test was used to determine the ecotoxicity of 6a, 7a, and 9a to non-target organisms. Briefly, Artemia salina eggs were allowed to hatch in seawater for 48 h at 25 °C. Bioassays were performed in 96-well microplates with 15–20 nauplii per well and 200 μL of the compounds test solution. Test solutions were prepared in filtered seawater at concentrations of 25 and 50 μM. All tests included K2Cr2O7 as positive control and DMSO as a negative control. Bioassays run in the dark at 25 °C, and the percentage of mortality was determined after 48 h of exposure.

Navicula sp. = experiment: Biofilm-forming marine diatom growth inhibition; type: cell-based; conditions: for EC50: dose-response
Procedure: The anti-microalgal activity of the most promising compounds was also evaluated against a benthic marine diatom, Navicula sp., purchased from the Spanish Collection of Algae (BEA), according to the previously reported. Briefly, diatom cells were inoculated in f/2 medium (Sigma) at an initial concentration of 2–4 × 10^6 cells·mL^−1 and grown in 96-well flat-bottom microtiter plates for 14 days in continuous light at 20 °C. […] Growth inhibition was calculated based in the formula ((Mc–Mt)/Mc) × 100, where Mc is the mean of the cell counts of the four replicates from negative control, and Mt is the mean of the cell counts of the four replicates from each of the tested compounds. Positive control with cycloheximide (3.55 μM) and negative control with f/2 medium 0.1% DMSO were included.
as §1

Ulva pertusa = tested on: Ulva pertusa; design: method as in doi:10.3989/scimar.04638.13A; conditions: cited from earlier work
Artemia salina nauplii [5] = tested on: Artemia salina nauplii; design: method as in PMID 31669574; conditions: 25 and 50 μM; cited from earlier work
[6] = 95% CI in brackets, read-out: EC50 (µM), concentration that inhibited 50% of larval settlement
[7] = dose-response, read-out: EC50 (µM), R. litoralis growth
[8] = dose-response, read-out: EC50 (µg·mL^−1), R. litoralis growth

Compound: CC(=O)c1ccc(OCc2cn(CCCO)nn2)cc1O [Compound 7b, 1-(2-Hydroxy-4-((1-(3-hydroxypropyl)-1H-1,2,3-triazol-4-yl)methoxy)phenyl)ethan-1-one]
EC50 (µM), R. litoralis growth ([1]; dose-response): not possible to estimate
R. litoralis biofilm growth inhibition [1]: significantly inhibit
melting point: 69.2 to 70.5 °C

Compound: COc1cc(C(C)=O)cc(OC)c1OCc1cn([C@H]2O[C@@H](CO)[C@H](O)[C@@H](O)[C@@H]2NC(C)=O)nn1 [Compound 9a, N-((2S,3S,4S,5R,6S)-2-(4-((4-Acetyl-2,6-dimethoxyphenoxy)methyl)-1H-1,2,3-triazol-1-yl)-4,5-dihydroxy-6-(hydroxymethyl)tetrahydro-2H-pyran-3-yl)acetamide]
EC50 [2, 6]: 20.7 µM
percentage of settlement [2]: ≤ 40%
LC50 at 15 h [3]: > 200 µM
mortality rate of Artemia salina nauplii (Artemia salina nauplii [4]): not significantly different from negative control; also recorded: non-toxic

Compound: COc1cc(C(C)=O)cc(OC)c1OCc1cn(-c2ccc(Cl)cc2)nn1 [Compound 6a, 1-(4-((1-(4-Chlorophenyl)-1H-1,2,3-triazol-4-yl)methoxy)-3,5-dimethoxyphenyl)ethan-1-one]
EC50 [2, 6]: 28.9 µM
percentage of settlement [2]: ≤ 40%
LC50 at 15 h [3]: > 200 µM

Compound: COc1cc(C(C)=O)cc(OC)c1OCc1cn(CCCO)nn1 [Compound 7a, 1-(4-((1-(3-Hydroxypropyl)-1H-1,2,3-triazol-4-yl)methoxy)-3,5-dimethoxyphenyl)ethan-1-one]
EC50 [2, 6]: 40.1 µM
EC50 ([2]; read-out: EC50 (µg·mL^−1), larval settlement): < 25 µg/mL
percentage of settlement [2]: ≤ 40%
LC50 at 15 h [3]: > 200 µM
mortality rate of Artemia salina nauplii (Artemia salina nauplii [4]): not significantly different from negative control; also recorded: non-toxic
Navicula sp. growth inhibition screening (Navicula sp.; 15 µM (Figure 5 legend), 14 days): showed inhibitory activity
EC50 (Navicula sp.; read-out: EC50 (µM), Navicula sp. growth): 26.7 µM
EC50 (Navicula sp.; read-out: EC50 (µg·mL^−1), Navicula sp. growth): 8.96 µg/mL

Compound: CC(=O)c1ccc(O)cc1O [2,4-dihydroxyacetophenone]
inhibition of spore attachment (Ulva pertusa): significantly inhibit

Compound: CC(=O)c1ccc(OCc2cn(-c3ccc(Cl)cc3)nn2)cc1O [Compound 6b, 1-(4-((1-(4-Chlorophenyl)-1H-1,2,3-triazol-4-yl)methoxy)-2-hydroxyphenyl)ethan-1-one]
melting point: 157 to 159.1 °C

Compound: CC(=O)c1ccc(OCc2cn(-c3ccc(Br)cc3)nn2)cc1O [Compound 5b, 1-(4-((1-(4-Bromophenyl)-1H-1,2,3-triazol-4-yl)methoxy)-2-hydroxyphenyl)ethan-1-one]
melting point: 183.3 to 184.8 °C

Compound: CC(=O)c1ccc(OCc2cn(Cc3ccc(C#N)cc3)nn2)cc1O [Compound 3b, 4-((4-((4-Acetyl-3-hydroxyphenoxy)methyl)-1H-1,2,3-triazol-1-yl)methyl)benzonitrile]
EC50 [1, 7]: 49.8 µM
EC50 [1, 8]: 17.4 µg/mL
R. litoralis biofilm growth inhibition [1]: significantly inhibit
melting point: 153.8 to 155.6 °C

Compound: N#Cc1c(-c2ccc(Cl)cc2)[nH]c(C(F)(F)F)c1Br [ECONEA®]
lethality to Artemia salina (Artemia salina nauplii [5]): 100%

Further lines, with some results ahead:

melting point: 159.1 to 160.4 °C
Compound: COc1cc(C(C)=O)cc(OC)c1OCc1cn(-c2ccc(Br)cc2)nn1 [Compound 5a, 1-(4-((1-(4-Bromophenyl)-1H-1,2,3-triazol-4-yl)methoxy)-3,5-dimethoxyphenyl)ethan-1-one]

melting point: 149.5 to 149.8 °C
Compound: COc1cc(C(C)=O)cc(OC)c1OCc1cn(Cc2ccc(C#N)cc2)nn1 [Compound 3a, 4-((4-((4-Acetyl-2,6-dimethoxyphenoxy)methyl)-1H-1,2,3-triazol-1-yl)methyl)benzonitrile]

melting point: 115.1 to 117.5 °C
Compound: COc1ccc(-n2cc(COc3ccc(C(C)=O)c(O)c3)nn2)cc1 [Compound 8b, 1-(2-Hydroxy-4-((1-(4-methoxyphenyl)-1H-1,2,3-triazol-4-yl)methoxy)phenyl)ethan-1-one]

melting point: 160 to 160.5 °C
Compound: COc1cc(C(C)=O)cc(OC)c1OCc1cn(-c2ccc(F)cc2)nn1 [Compound 4a, 1-(4-((1-(4-Fluorophenyl)-1H-1,2,3-triazol-4-yl)methoxy)-3,5-dimethoxyphenyl)ethan-1-one]

EC50 [1, 7]: 105 µM
EC50 [1, 8]: 34.4 µg/mL
melting point: 145.9 to 148 °C
Compound: CC(=O)c1ccc(OCc2cn(-c3ccc(F)cc3)nn2)cc1O [Compound 4b, 1-(4-((1-(4-Fluorophenyl)-1H-1,2,3-triazol-4-yl)methoxy)-2-hydroxyphenyl)ethan-1-one]
R. litoralis biofilm growth inhibition [1]: significantly inhibit

melting point: 99.5 to 102.3 °C
Compound: COc1ccc(-n2cc(COc3c(OC)cc(C(C)=O)cc3OC)nn2)cc1 [Compound 8a, 1-(3,5-Dimethoxy-4-((1-(4-methoxyphenyl)-1H-1,2,3-triazol-4-yl)methoxy)phenyl)ethan-1-one]
